Patent US10364314B2, “Compound, resin, material for forming underlayer film for lithography, composition for forming underlayer film for lithography, underlayer film for lithography, resist pattern forming method, circuit pattern forming method, and purification method” (Mitsubishi Gas Chemical Company, Inc., priority 2015, dated 2019)

Test: Solubility in PGME and PGMEA at 23° C.
Assay type: physicochemical
Procedure: The amount of each compound dissolved in 1-methoxy-2-propanol (PGME) and propylene glycol monomethyl ether acetate (PGMEA) was measured at 23° C., and the results were evaluated according to the following criteria.
Evaluation A: 10% by mass or more
Evaluation B: 5% by mass or more and less than 10% by mass
Evaluation C: less than 5% by mass

SMILES	Evaluation of the solubility in PGME and PGMEA	solubility in PGME and PGMEA
Oc1ccc2c3c(ccc2c1)Oc1ccc2cc(O)ccc2c1C3c1c[nH]c(-c2ccccc2)n1 [IMX-4]	B (5% by mass or more and less than 10% by mass)	≥ 5 % by mass
Oc1ccc2ccc3c(c2c1)C(c1c[nH]cn1)c1c(ccc2ccc(O)cc12)O3 [IMX-1]	A (10% by mass or more)	≥ 10 % by mass
CCCCc1nc(C2c3c(ccc4cc(O)ccc34)Oc3ccc4cc(O)ccc4c32)c(Cl)[nH]1 [IMX-5]	A (10% by mass or more)	≥ 10 % by mass
Oc1ccc(-c2ccc(O)c(C(c3c[nH]cn3)c3cc(-c4ccc(O)cc4)ccc3O)c2)cc1 [IMX-3]	A (10% by mass or more)	≥ 10 % by mass
Oc1ccc2c3c(ccc2c1)Oc1ccc2cc(O)ccc2c1C3c1c[nH]cn1 [IMX-2]	A (10% by mass or more)	≥ 10 % by mass
